Data reported in ChEMBL document CHEMBL1201862, “PubChem BioAssay data set” (2004).
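The compound was tested at five concentrations on cells cultured in 96-well plates, with a 48-hour exposure period. At the GI50, growth is halved.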 Calls of active or inactive are those of the source. Cut-off read from the data, not from the text of the source: active = GI50 up to about 1.1 µM and inactive = higher.

Legend:
Experiment in all cases: DTP human tumour cell line panel, 48 h
CAKI-1 = tested on: CAKI-1
CCRF-CEM = tested on: CCRF-CEM
EKVX = tested on: EKVX
M14 = tested on: M14
MDA-MB-231 = tested on: MDA-MB-231
MDA-N = tested on: MDA-N
MOLT-4 = tested on: MOLT-4
Malme-3M = tested on: Malme-3M
NCI-H226 = tested on: NCI-H226
OVCAR-4 = tested on: OVCAR-4
RXF 393 = tested on: RXF 393
SF-268 = tested on: SF-268
SK-MEL-5 = tested on: SK-MEL-5
SK-OV-3 = tested on: SK-OV-3
SN12C = tested on: SN12C
SNB-19 = tested on: SNB-19
TK-10 = tested on: TK-10
UACC-257 = tested on: UACC-257
SK-MEL-2 = tested on: SK-MEL-2

Measured: GI50

COc1ccc(CC(N)c2ccc(OC)cc2)cc1 (centres undefined)
inactive: CAKI-1 > 100 µM | CCRF-CEM 70.5 µM | EKVX > 100 µM | M14 48 µM | MDA-MB-231 84.9 µM | MDA-N 36.8 µM | MOLT-4 57.8 µM | Malme-3M 37.4 µM | NCI-H226 76.2 µM | OVCAR-4 > 100 µM | RXF 393 72.1 µM | SF-268 > 100 µM | SK-MEL-5 43.4 µM | SK-OV-3 71.4 µM | SN12C > 100 µM | SNB-19 > 100 µM | TK-10 > 100 µM | UACC-257 42 µM

O=C(O)c1ccccc1/C=N/N=C1NCCN1
inactive: CCRF-CEM > 100 µM | EKVX > 100 µM | M14 > 100 µM | MDA-MB-231 > 100 µM | MDA-N > 100 µM | MOLT-4 > 100 µM | Malme-3M 88.1 µM | NCI-H226 > 100 µM | OVCAR-4 > 100 µM | RXF 393 > 100 µM | SF-268 97.9 µM | SK-MEL-2 59.6 µM | SK-MEL-5 > 100 µM | SK-OV-3 61.5 µM | SNB-19 > 100 µM | TK-10 46.8 µM | UACC-257 84.1 µM

CCOC(=O)Cn1nc2ccc(Nc3c(C)[n+]([O-])c4cc(F)c(OCC)cc4[n+]3[O-])cc2n1
inactive: CAKI-1 > 100 µM | CCRF-CEM > 100 µM | EKVX > 100 µM | M14 > 100 µM | MDA-MB-231 46.8 µM | MDA-N > 100 µM | MOLT-4 > 100 µM | NCI-H226 > 100 µM | OVCAR-4 > 100 µM | RXF 393 20.7 µM | SF-268 50.9 µM | SK-MEL-2 16.8 µM | SK-MEL-5 > 100 µM | SK-OV-3 56.4 µM | TK-10 27.5 µM | UACC-257 > 100 µM

CCOC(=O)C1C(C(C)C)C2(C#N)C(=N)OC1(C)C2(C#N)C#N (centres undefined)
inactive: CAKI-1 2.72 µM | CCRF-CEM 47 µM | EKVX 78.3 µM | M14 > 100 µM | MDA-MB-231 > 100 µM | MDA-N 16.2 µM | Malme-3M 40.8 µM | NCI-H226 56.4 µM | RXF 393 36.3 µM | SF-268 > 100 µM | SK-MEL-2 58.9 µM | SK-MEL-5 30.5 µM | SK-OV-3 > 100 µM | SN12C 65.8 µM | SNB-19 > 100 µM | TK-10 > 100 µM | UACC-257 54.8 µM

CC1OC(OC2C(O)COC(OC3C(C)OC(OC4C(OC(=O)[C@]56CCC(C)(C)C[C@@H]5C5=CCC7[C@@]8(C)C[C@H](O)[C@H](OC9OC(CO)C(O)C(O)C9O)[C@@](C)(CO)[C@@H]8CC[C@@]7(C)[C@]5(C)CC6)OCC(O)C4O)C(O)C3O)C2O)C(O)C(O)C1O (some centres undefined)
inactive: CAKI-1 12.5 µM | CCRF-CEM 20.6 µM | EKVX 16.5 µM | M14 22.8 µM | MDA-MB-231 19.8 µM | MDA-N 20.5 µM | MOLT-4 19 µM | Malme-3M 33.4 µM | NCI-H226 25.1 µM | OVCAR-4 20.8 µM | RXF 393 15.6 µM | SF-268 27.7 µM | SK-MEL-5 20.4 µM | SK-OV-3 19.8 µM | SN12C 21.2 µM | SNB-19 21.8 µM | TK-10 17.1 µM | UACC-257 17.5 µM

NS(=O)(=O)c1ccc(NC(=S)N/C=C2\C(=O)Nc3ccccc3C2=O)cc1
inactive: CAKI-1 20.1 µM | CCRF-CEM > 100 µM | EKVX > 100 µM | M14 > 100 µM | MDA-MB-231 > 100 µM | MDA-N > 100 µM | MOLT-4 > 100 µM | NCI-H226 > 100 µM | OVCAR-4 > 100 µM | RXF 393 > 100 µM | SF-268 > 100 µM | SK-MEL-2 > 100 µM | SK-MEL-5 > 100 µM | SK-OV-3 > 100 µM | SN12C > 100 µM | SNB-19 > 100 µM | TK-10 > 100 µM | UACC-257 > 100 µM

CCOC(=O)C1=CCOc2cc(N(C)C)ccc21
inactive: CAKI-1 > 100 µM | CCRF-CEM 21.6 µM | EKVX > 100 µM | M14 > 100 µM | MDA-MB-231 > 100 µM | MDA-N > 100 µM | Malme-3M > 100 µM | NCI-H226 > 100 µM | RXF 393 > 100 µM | SF-268 97.5 µM | SK-MEL-2 75 µM | SK-MEL-5 > 100 µM | SK-OV-3 > 100 µM | SN12C > 100 µM | SNB-19 > 100 µM | TK-10 > 100 µM | UACC-257 > 100 µM

COc1nc(N(C)C)nc2c1[n+](C)cn2C [HETEROMINE A]
inactive: CAKI-1 > 100 µM | CCRF-CEM 30.3 µM | EKVX > 100 µM | M14 > 100 µM | MDA-MB-231 > 100 µM | MDA-N 94.6 µM | MOLT-4 97.9 µM | Malme-3M 23.1 µM | NCI-H226 > 100 µM | RXF 393 84.1 µM | SF-268 31.8 µM | SK-MEL-2 32.2 µM | SK-MEL-5 41.7 µM | SK-OV-3 > 100 µM | SN12C 72.8 µM | SNB-19 25.1 µM | TK-10 > 100 µM | UACC-257 53.1 µM
